Measurements published in US20090208979A1, “Method for identifying antipsychotic drug candidates” (priority 2008, published 2009).
Where two headings read alike, the source gives them in different places.

Columns and labels:
ERK2 = conditions: whole cell lysates, normalized to total ERK2, vs control; for reduction of ERK2 phosphorylation: acute treatment, 15 minutes; for increase of ERK2 phosphorylation: chronic treatment, 7 days
PKCβ2 [1] = assay type: cell-based, rat
GAD67 = assay type: cell-based, rat; conditions: whole cell lysates, vs control
PKC [2] = tested on: PKC
PKC [3] = tested on: PKC; remark: listed apart in the source
PKCβ2 [4] = conditions: rat, in vivo, ip
PKCβ2 [5] = assay type: in vivo, rat; conditions: rats, chronic 14 days IP; frontal cortex; vs control
[6] = rats; haloperidol 1 mg/kg and fluvoxamine 10 mg/kg IP; cited from earlier work
GAD67 mRNA = assay type: in vivo, rat; conditions: rats, 14 days daily IP (haloperidol 1 mg/kg, fluvoxamine 10 mg/kg, clozapine 10 mg/kg); frontal cortex; vs control
[7] = tested on: negative symptoms of schizophrenia; conditions: add-on to antipsychotic treatment; clinical studies; cited from earlier work
[8] = chronic treatment, 7 days, whole cell lysates, vs control
[9] = rats, chronic 14 days IP, frontal cortex, vs control
[10] = rats, 14 days daily IP (haloperidol 1 mg/kg, fluvoxamine 10 mg/kg, clozapine 10 mg/kg), frontal cortex, vs control

Question: What does the source list for `CN1CCN(C2=Nc3cc(Cl)ccc3Nc3ccccc32)CC1` [clozapine]?
Answer: reduction of ERK2 phosphorylation (ERK2): 67%; increase of ERK2 phosphorylation (ERK2): 87%; decrease of PKCβ2 protein level (PKCβ2 [1]; acute treatment, 15 minutes, whole cell lysates, vs control): 31%; decrease of PKCβ2 protein level (PKCβ2 [1]; [8]): 60%; decrease of GAD67 protein level (GAD67; acute treatment, 15 minutes): 25%; decrease of GAD67 protein level (GAD67; chronic treatment, 7 days): 73%

Question: Which results are given for `COCCCC/C(=N\OCCN)c1ccc(C(F)(F)F)cc1` [fluvoxamine]?
Answer: increase of PKC phosphorylation in the membranal fraction (PKC [2]; rat, in vivo, ip): 50%; increase of PKC phosphorylation in whole lysate (PKC [2]; rat, in vivo, ip): 40%; increase of PKCβ2 protein level (PKCβ2 [1]): did not affect; PKCβ mRNA level (PKCβ mRNA; rat, in vivo): increased significantly; decrease of GAD67 protein level (GAD67; chronic treatment, 7 days): 60%; PKCγ mRNA level (PKCγ mRNA; rat, in vivo): increased significantly; increase of PKC phosphorylation level (PKC [3]): 156%; PKCβ2 level, cytosolic compartment (PKCβ2 [4]): reduced level

Question: For `O=C(CCCN1CCC(O)(c2ccc(Cl)cc2)CC1)c1ccc(F)cc1` [haloperidol], which “increase of PKC phosphorylation in the membranal fraction” value (PKC [2]; [9]) is on record?
Answer: 45%

Question: And the “increase of PKC phosphorylation in whole lysate” value (PKC [2]; [9])?
Answer: 38%

Question: And the “PKCβ2 protein level, whole tissue lysate” value (PKCβ2 [5])?
Answer: significantly increased

Question: And the “reduction of ERK2 phosphorylation” value (ERK2)?
Answer: did not alter

Question: And the “increase of ERK2 phosphorylation” value (ERK2)?
Answer: did not alter

Question: And the “brain and serum concentrations when coadministered compared with given individually” value [6]?
Answer: not significantly changed

Question: And the “increase of PKCβ2 protein level” value (PKCβ2 [1]; [8])?
Answer: 106%

Question: What about the “PKCβ mRNA level” value (PKCβ mRNA; [10]) of the same compound?
Answer: significantly increased

Question: What about the “decrease of GAD67 protein level” value (GAD67; acute treatment, 15 minutes) of the same compound?
Answer: did not affect

Question: What about the “decrease of GAD67 protein level” value (GAD67; chronic treatment, 7 days) of the same compound?
Answer: did not affect

Question: What about the “GAD67 mRNA level” value (GAD67 mRNA) of the same compound?
Answer: significantly increased

Question: What about the “PKCγ mRNA level” value (PKCγ mRNA; [10]) of the same compound?
Answer: significantly increased

Question: And the “increase of PKC phosphorylation level” value (PKC [3]; 15 minutes treatment (FIG. 11A), whole cell lysates, normalized to β-actin, vs control)?
Answer: 134%

Question: With `CNCCCC12CCC(c3ccccc31)c1ccccc12` [maprotiline] as the compound, how does the “effect on negative symptoms of schizophrenia” value [7] read?
Answer: did not improve negative symptoms
